US20150105252A1, “SUBSTITUTED PYRAZOLES AS HERBICIDES” (E I DU PONT DE NEMOURS AND COMPANY, priority 2013, published 2015)

Tested on: common ragweed
Experiment: Test A preemergence
Assay type: in vivo, Ambrosia elation
Procedure, shortened: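 Scoring was visual, on a scale where 100 means complete control and 0 means no effect, comparing treated with untreated plants around 10 days post-application. Compounds in surfactant-containing non-phytotoxic solvent were sprayed onto soil preemergence or onto one- to two-leaf seedlings (2–10 cm) postemergence.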

[1] = 125 g ai/ha, visual injury, 0 to 100 scale, approx. 10 days
[2] = 500 g ai/ha, visual injury after approx. 10 days, 0 to 100 scale (0 no effect, 100 complete control)

For CCc1cc(C(=O)NOC(C)C)nn1Cc1ccnc(OC(F)F)c1 [Compound 126], the “Common Ragweed plant response rating” value [1] was 90 and the “Common Ragweed plant response rating” value [2] was 100.
CCCc1cc(C(=O)NCC(F)(F)F)nn1Cc1ccnc(OC(F)F)c1 [Compound 127] was tested, and the “Common Ragweed plant response rating” value [1] was 30 and the “Common Ragweed plant response rating” value [2] was 90.
In the case of CCOc1cc(C(=O)NCC(F)(F)F)nn1Cc1ccnc(OC(F)F)c1 [Compound 128], the “Common Ragweed plant response rating” value [1] is reported as 70 and the “Common Ragweed plant response rating” value [2] is reported as 90.
For CCCNC(=O)c1cc(OCC)n(Cc2ccnc(OC(F)F)c2)n1 [Compound 136], the “Common Ragweed plant response rating” value [1] was 70 and the “Common Ragweed plant response rating” value [2] was 80.
In the case of CCCc1cc(C(=O)NC2CC2)nn1Cc1ccnc(OC(F)F)c1 [Compound 205], the “Common Ragweed plant response rating (0 to 100 scale)” value (125 g ai/ha, visual injury approx. 10 days after treatment) is reported as 70 and the “Common Ragweed plant response rating” value [2] is reported as 100.
